Source: patent publication US7375246B2, “Sulfhydral containing compounds and methods of using the same” (Regenesis Bioremediation Products Inc., priority 2003, dated 2008)

What was measured:
[1] = Example C: reduction of As in arsenate solution in a flask, atomic absorption
Procedure: 10.02 grams of ferrous cysteinate synthesized as in 1.4 were added to a 250 ml. flask which contained 150 ml of 32 ppm of As initially added as arsenic trioxide. The 32-ppm solution of As was prepared by using 0.08 grams of arsenic trioxide to which 3.0 grams of concentrated hydrochloric acid was added. This prepared the soluble arsenate. The solution was heated and diluted to one liter with distilled water. The As concentration was measured over time using atomic absorption.

[2] = Example D: two-flask liquid/soil system with chromated copper arsenate, arsenic
Procedure: (§1) A system which had two connected 250 ml flasks, one with liquid and soil and the other with a reservoir of liquid, was used. The liquid flowed between the 2 flasks. Samples were taken from the flask without the soil to determine the amount of Cu, As and Cr present in the aqueous phase. The liquid in the flask without soil was sampled periodically and the Cu, Cr and As content measured by Atomic Absorption Spectroscopy. A unimolar ratio of copper chromate and copper arsenate was used as being representative of chromated copper arsenate. The level of contamination was selected so that the As component was about 30 mg/L. After the system was set up the As component was determined to be 28.3 mg/L. The Cu and Cr were approximately 25 mg/L and 15.5 mg/L, respectively.
(§2) Ferrous cysteinate and sorbitol tricysteinate were both used in this system.

[3] = Example D: two-flask liquid/soil system with chromated copper arsenate, chromium
Procedure: as §1, §2

[4] = Example D: two-flask liquid/soil system with chromated copper arsenate, copper
Procedure: as §1, §2

[5] = Example E: Aquifer Simulation Vessel (ASV), chromated copper arsenate, arsenic; details: for Arsenic concentration in aqueous phase: initial 25.7
Procedure: (§3) A tube 6 foot long and 6 inches in diameter was packed with soil. These tubes simulate the flow in an aquifer below ground and are referred to as Aquifer Simulation Vessels (ASV). The ASV has sample ports along the bottom at every 6-inch interval to allow sampling as water flows through the tube. Contaminated water is allowed to flow through the tube. As the water flows through the tube, the water within the space pockets of the soil is tested and when the soil with the tube is fully contaminated the flow was stopped. The soil pockets (pores) were full of contaminants from the water. At that point either ferrous cysteinate or sorbitol hexacysteinate was injected just ahead of the first port with no flow in the system.
(§4) A separate tube was used for each of the two materials tested.
(§5) Initially the soil pockets (pores) were filled with this solution as described. Either ferrous cysteinate or sorbitol hexacysteinate was injected into the soil containing tube. The concentration of contaminants at each sample port was measured over a 30 day period. The system was then flushed with fresh water to determine if the removed metals are “redistributed” or “redissolved” in the water (i.e. so called “rebound”). This measure determined the ability of the compounds to permanently remove the contaminants.

[6] = Example E: Aquifer Simulation Vessel (ASV), chromated copper arsenate, chromium; details: for Chromium concentration in aqueous phase / Cr concentration: initial 15
Procedure: as §3, §4, §5

[7] = Example E: Aquifer Simulation Vessel (ASV), chromated copper arsenate, copper; details: for Copper concentration in aqueous phase: initial 4.2
Procedure: as §3, §4, §5

Substance: ferrous cysteinate [FeC]
- time in which the concentration of As was reduced by half ([1]; 10.02 grams in 150 ml of 32 ppm As): less than 45 hours
- concentration of As after treatment ([1]; from 32 ppm, in less than 45 hours): less than 15 ppm
- remediation of arsenic in combined solution [2]: remediated
- remediation of chromium in combined solution [3]: remediated
- remediation of copper in combined solution [4]: remediated
- remediation of As in ASV [5]: effective remediation
- Arsenic concentration in aqueous phase ([5]; Port 1, Day 5): 25.8 mg/L
- Arsenic concentration in aqueous phase ([5]; Port 1, Day 8): 10.9 mg/L
- Arsenic concentration in aqueous phase ([5]; Port 1, Day 13): 6.8 mg/L
- Arsenic concentration in aqueous phase ([5]; Port 1, Day 16): 3.6 mg/L
- Arsenic concentration in aqueous phase ([5]; Port 1, Day 20): 3.3 mg/L
- Arsenic concentration in aqueous phase ([5]; Port 1, Day 22): 1.1 mg/L
- Arsenic concentration in aqueous phase ([5]; Port 1, Day 27): 0.6 mg/L
- Arsenic concentration in aqueous phase ([5]; Port 5, Day 5): 23.1 mg/L
- Arsenic concentration in aqueous phase ([5]; Port 5, Day 8): 9.8 mg/L
- Arsenic concentration in aqueous phase ([5]; Port 5, Day 13): 6.8 mg/L
- Arsenic concentration in aqueous phase ([5]; Port 5, Day 16): 3.5 mg/L
- Arsenic concentration in aqueous phase ([5]; Port 5, Day 20): 3.0 mg/L
- Arsenic concentration in aqueous phase ([5]; Port 5, Day 22): 0.9 mg/L
- Arsenic concentration in aqueous phase ([5]; Port 5, Day 27): 0.5 mg/L
- Arsenic concentration in aqueous phase ([5]; Port 10, Day 5): 23.9 mg/L
- Arsenic concentration in aqueous phase ([5]; Port 10, Day 8): 7.7 mg/L
- Arsenic concentration in aqueous phase ([5]; Port 10, Day 13): 5.4 mg/L
- Arsenic concentration in aqueous phase ([5]; Port 10, Day 16): 2.8 mg/L
- Arsenic concentration in aqueous phase ([5]; Port 10, Day 20): 2.9 mg/L
- Arsenic concentration in aqueous phase ([5]; Port 10, Day 22): 0.8 mg/L
- Arsenic concentration in aqueous phase ([5]; Port 10, Day 27): 0.5 mg/L
- remediation of Cr in ASV [6]: effective remediation
- Chromium concentration in aqueous phase ([6]; Port 1, Day 8): 5.8 mg/L
- Chromium concentration in aqueous phase ([6]; Port 1, Day 13): 3.4 mg/L
- Chromium concentration in aqueous phase ([6]; Port 1, Day 16): 1.4 mg/L
- Chromium concentration in aqueous phase ([6]; Port 1, Day 20): 0.7 mg/L
- Chromium concentration in aqueous phase ([6]; Port 1, Day 22): 1.1 mg/L
- Chromium concentration in aqueous phase ([6]; Port 1, Day 27): 1.0 mg/L
- Chromium concentration in aqueous phase ([6]; Port 5, Day 8): 4.8 mg/L
- Chromium concentration in aqueous phase ([6]; Port 5, Day 13): 1.3 mg/L
- Chromium concentration in aqueous phase ([6]; Port 5, Day 16): 0.9 mg/L
- Chromium concentration in aqueous phase ([6]; Port 5, Day 20): 0.6 mg/L
- Chromium concentration in aqueous phase ([6]; Port 5, Day 22): 1.0 mg/L
- Chromium concentration in aqueous phase ([6]; Port 5, Day 27): 0.9 mg/L
- Chromium concentration in aqueous phase ([6]; Port 10, Day 8): 5.2 mg/L
- Chromium concentration in aqueous phase ([6]; Port 10, Day 13): 0.8 mg/L
- Chromium concentration in aqueous phase ([6]; Port 10, Day 16): 0.6 mg/L
- Chromium concentration in aqueous phase ([6]; Port 10, Day 20): 0.5 mg/L
- Chromium concentration in aqueous phase ([6]; Port 10, Day 22): 0.9 mg/L
- Chromium concentration in aqueous phase ([6]; Port 10, Day 27): 0.7 mg/L
- Cr concentration ([6]; port 1, day 30): 0.7 mg/L
- Cr concentration ([6]; port 5, day 30): 0.4 mg/L
- Cr concentration ([6]; port 10, day 30): 0.4 mg/L
- remediation of Cu in ASV [7]: effective remediation
- Copper concentration in aqueous phase ([7]; Port 1, Day 5): 0.3 mg/L
- Copper concentration in aqueous phase ([7]; Port 1, Day 8): 0.2 mg/L
- Copper concentration in aqueous phase ([7]; Port 1, Day 13): 0.1 mg/L
- Copper concentration in aqueous phase ([7]; Port 1, Day 16): 0.1 mg/L
- Copper concentration in aqueous phase ([7]; Port 1, Day 20): 0.0 mg/L
- Copper concentration in aqueous phase ([7]; Port 1, Day 22): 0.1 mg/L
- Copper concentration in aqueous phase ([7]; Port 1, Day 27): 0.0 mg/L
- Copper concentration in aqueous phase ([7]; Port 5, Day 5): 0.3 mg/L
- Copper concentration in aqueous phase ([7]; Port 5, Day 8): 0.2 mg/L
- Copper concentration in aqueous phase ([7]; Port 5, Day 13): 0.1 mg/L
- Copper concentration in aqueous phase ([7]; Port 5, Day 16): 0.0 mg/L
- Copper concentration in aqueous phase ([7]; Port 5, Day 20): 0.0 mg/L
- Copper concentration in aqueous phase ([7]; Port 5, Day 22): 0.0 mg/L
- Copper concentration in aqueous phase ([7]; Port 5, Day 27): 0.0 mg/L
- Copper concentration in aqueous phase ([7]; Port 10, Day 5): 0.1 mg/L
- Copper concentration in aqueous phase ([7]; Port 10, Day 8): 0.1 mg/L
- Copper concentration in aqueous phase ([7]; Port 10, Day 13): 0.0 mg/L
- Copper concentration in aqueous phase ([7]; Port 10, Day 16): 0.0 mg/L
- Copper concentration in aqueous phase ([7]; Port 10, Day 20): 0.0 mg/L
- Copper concentration in aqueous phase ([7]; Port 10, Day 22): 0.0 mg/L
- Copper concentration in aqueous phase ([7]; Port 10, Day 27): 0.0 mg/L

Substance: sorbitol tricysteinate
- remediation of arsenic in combined solution [2]: remediated
- remediation of chromium in combined solution [3]: remediated
- remediation of copper in combined solution [4]: remediated
